Reference: patent US20150297615A1, “ANDROGEN RECEPTOR INACTIVATION CONTRIBUTES TO ANTITUMOR EFFICACY OF CYP17 INHIBITORS IN PROSTATE CANCER” (UNIVERSITY OF MARYLAND, BALTIMORE, priority 2008, published 2015)
Where a chain is given by its changes, count along the chain named. Where two headings read alike, the source gives them in different places.

Legend:
[1] = biological target: T1, wild-type AR (Homo sapiens, UniProt P10275); assay: Competitive inhibition of [3H]R1881 binding, wild-type AR (LAPC4/PC3-AR cells); conditions: read-out: wild-type (LAPC4/PC3-AR), inhibition of [3H]R1881 binding as symbol
T1 construct: the wild-type AR expressed endogenously in LAPC4 cells; endogenous in cells; host or cells: LAPC4 cells (endogenous) and PC3-AR cells (PC-3 stably transfected with human wild-type AR)
T1 sequence (P10275 1-920): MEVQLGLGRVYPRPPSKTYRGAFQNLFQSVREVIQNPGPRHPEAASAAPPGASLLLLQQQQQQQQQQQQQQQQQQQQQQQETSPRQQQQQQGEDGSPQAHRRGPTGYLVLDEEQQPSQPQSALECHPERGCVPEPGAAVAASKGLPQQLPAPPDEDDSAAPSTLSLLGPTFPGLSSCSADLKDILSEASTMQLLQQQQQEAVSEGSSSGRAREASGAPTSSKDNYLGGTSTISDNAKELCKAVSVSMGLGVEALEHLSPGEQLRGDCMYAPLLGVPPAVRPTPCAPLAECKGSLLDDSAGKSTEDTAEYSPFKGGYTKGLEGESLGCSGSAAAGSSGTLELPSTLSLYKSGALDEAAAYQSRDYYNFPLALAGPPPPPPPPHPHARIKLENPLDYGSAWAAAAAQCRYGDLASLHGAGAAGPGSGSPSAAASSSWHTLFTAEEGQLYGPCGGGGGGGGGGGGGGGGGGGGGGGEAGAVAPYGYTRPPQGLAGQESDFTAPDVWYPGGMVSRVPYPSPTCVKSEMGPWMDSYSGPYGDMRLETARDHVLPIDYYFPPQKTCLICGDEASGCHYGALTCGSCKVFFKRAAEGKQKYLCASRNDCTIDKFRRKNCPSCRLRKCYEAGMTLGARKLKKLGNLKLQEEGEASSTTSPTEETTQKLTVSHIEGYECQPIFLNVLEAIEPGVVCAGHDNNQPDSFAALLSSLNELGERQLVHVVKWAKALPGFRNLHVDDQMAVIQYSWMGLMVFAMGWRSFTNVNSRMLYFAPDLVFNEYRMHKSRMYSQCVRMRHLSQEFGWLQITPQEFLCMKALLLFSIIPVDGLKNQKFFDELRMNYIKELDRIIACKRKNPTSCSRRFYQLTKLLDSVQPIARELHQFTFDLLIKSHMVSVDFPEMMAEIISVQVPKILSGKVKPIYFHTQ
Experimental: (§1) In order to determine if the CYP17 inhibitors interact with the AR, competitive binding assays were performed as described previously. The ability of the test compounds (1 nM-10 μM) to displace [^3H]R1881 (5.0 nM) from the AR was determined in LAPC4 cells (wild-type AR), PC3 cells transfected with wild-type AR (PC3-AR), LNCaP cells which express an endogenous AR with a mutation in the ligand binding domain (T877A), and PC3 cells transfected with an AR containing a mutation in the DNA binding domain (T575A).
(§2) The ability of the test compounds to displace [^3H]R1881 (5.0 nM) from the androgen receptor was determined in LAPC4 cells (wild-type AR), PC3 cells transfected with wild-type AR, LNCaP cells which express an endogenous AR with a mutation in the ligand binding domain (T877A), and PC3 cells transfected with an AR containing a mutation in the DNA binding domain (T575A). Cells were plated (2-3×10^5) in 24 well multiwell dishes in steroid-free medium and allowed to attach. The following day the medium was replaced with serum-free, steroid free RPMI supplemented with 0.1% BSA and containing [^3H]R1881 (5 nM), test compounds (1 nM-10 μM), and 1 μM triamcinolone acetonide to saturate progesterone and glucocorticoid receptors. Following a 2 hour incubation period at 37° C., cells were washed twice with ice-cold DPBS and solubilized in DPBS containing 0.5% SDS and 20% glycerol.

[2] = biological target: T2, T877A AR (Homo sapiens, UniProt P10275, T878A); assay: Competitive inhibition of [3H]R1881 binding, T877A AR (LNCaP cells); conditions: read-out: T877A (LNCaP), inhibition of [3H]R1881 binding as symbol
T2 construct: endogenous in cells; host or cells: LNCaP cells
T2 sequence (P10275 1-920 T878A): T1 sequence (P10275 1-920) with T878A
Experimental: as §1, §2

[3] = tested on: LNCaP cells; assay: Cell proliferation assay (XTT), LNCaP cells; conditions: Homo sapiens, 168 h
Experimental: (§3) To determine the effect of steroids and novel compounds on cell proliferation, each cell type was transferred into steroid-free medium three days prior to the start of the experiments (steroid-free medium consisted of phenol red free RPMI supplemented with 5% dextran-coated, charcoal treated serum and 1% penicillin/streptomycin solution). Growth studies were then performed by plating cells (1.5×10^4cells/well) in 24-well multiwell dishes (Corning, Inc. Corning, N.Y.). After a 24 hour attachment period, the medium was aspirated and replaced with steroid-free medium containing vehicle or the indicated concentrations of androgens and novel compounds (1 nM-10 μM). Control wells were treated with vehicle (ethanol). […] The medium was changed every three days and the numbers of viable cells were compared by MTT or XTT (LNCaP) assay on the seventh day.
(§4) For the MTT procedure, following incubation of cells for the above mentioned time, 0.5 mg/ml MTT was added to each well and incubated at 37° C. for three hours. Following incubation, the medium was aspirated completely, with care taken not to disturb the formazan crystals. DMSO (500 μl) was used to solubilize these crystals. After slight shaking, the plates were read at 540 nm with a Victor 1420 scanning multi-well spectrophotometer. All results represent the average of a minimum of three wells. Additional control consisted of medium alone with no cells. XTT was performed essentially as MTT, with the deletion of the solubilization step and was preferred for the LNCaP cells that adhere poorly to the plates.
(§5) LNCaP cells were seeded at 15,000 cells/well in 24 well multi-well plates, and LAPC4 cells were seeded at 15,000 cells/well. […] The number of viable cells was compared by MTT assay (LAPC4) or XTT assay (LNCaP) on the 7th day.

[4] = tested on: LAPC4 cells; assay: Cell proliferation assay (MTT), LAPC4 cells; conditions: Homo sapiens, LAPC4, 168 h
Experimental: as §3, §4, §5

[5] = read-out: LNCaP IC50 (μM), DHT +
[6] = read-out: LNCaP IC50 (μM), DHT −
[7] = read-out: LAPC4 IC50 (μM), DHT +
[8] = read-out: LAPC4 IC50 (μM), DHT −

inhibition at 10 µM [1] [%] | inhibition at 10 µM [2] [%] | IC50 [3, 5] [µM] | IC50 [3, 6] [µM] | Compound | IC50 [4, 7] [µM] | IC50 [4, 8] [µM]
< 20 | < 20 | – | – | C[C@]12CC[C@H](O)CC1=CC[C@@H]1[C@@H]2CC[C@]2(C)C(c3cccnc3)=CC[C@@H]12 [Abiraterone] | – | –
– | – | 8.6 | 4.6 | CC(O)(CS(=O)(=O)c1ccc(F)cc1)C(=O)Nc1ccc(C#N)c(C(F)(F)F)c1 (stereo not shown) [Casodex, Bicalutamide] | 10 | 9
– | – | 6 | 2.6 | C[C@]12CC[C@H](O)CC1=CC[C@@H]1[C@@H]2CC[C@]2(C)C(n3cnc4ccccc43)=CC[C@@H]12 [VN/124-1, 3β-hydroxy-17-(1H-benzimidazole-1-yl)androsta-5,16-diene] | 3.2 | 4
